Measurements published in US12606559B2, “JAK inhibitor compounds, methods for synthesizing same and use thereof” (GALDERMA HOLDING SA, priority 2020, dated 2026).
pIC50: −log10 of the molar value.

How the values were obtained:
[1] = Protein binding analysis (RED), human plasma; assay type: in vitro ADME; conditions: 5 μM, RED 4 h
Experimental: (§1) The protein binding was assessed in plasma of Human, male balb-c mice, male Wistar Han rat, male Gottingen minipig by rapid equilibrium dialysis (RED) devices. After the plasma and buffer phosphate 50 mM pH7.4 were equilibrated at 37° C., the compound was added to plasma to reach a final concentration of 5 μM. An aliquot of plasma was withdrawn immediately. Equilibration under mild agitation was continued for 4 h. The plasma and buffer were sampled and samples were quenched with 4 volumes of acetonitrile and centrifuged. Supernatant was quantified in HPLC/MS/MS to calculate the recovery and the percentage of compound dissolved in the buffer (unbound) and bound to plasma proteins.

[2] = molecular target: T1, hERG (Human Ether-a-go-go Related Gene) channel in CHO-K1 cells (Homo sapiens, UniProt Q12809); assay: In vitro hERG channel, whole cell patch clamp; assay type: cell-based; conditions: up to 30 μM
T1 construct: expressed in transfected cells; host or cells: CHO-K1
T1 sequence (Q12809 whole entry): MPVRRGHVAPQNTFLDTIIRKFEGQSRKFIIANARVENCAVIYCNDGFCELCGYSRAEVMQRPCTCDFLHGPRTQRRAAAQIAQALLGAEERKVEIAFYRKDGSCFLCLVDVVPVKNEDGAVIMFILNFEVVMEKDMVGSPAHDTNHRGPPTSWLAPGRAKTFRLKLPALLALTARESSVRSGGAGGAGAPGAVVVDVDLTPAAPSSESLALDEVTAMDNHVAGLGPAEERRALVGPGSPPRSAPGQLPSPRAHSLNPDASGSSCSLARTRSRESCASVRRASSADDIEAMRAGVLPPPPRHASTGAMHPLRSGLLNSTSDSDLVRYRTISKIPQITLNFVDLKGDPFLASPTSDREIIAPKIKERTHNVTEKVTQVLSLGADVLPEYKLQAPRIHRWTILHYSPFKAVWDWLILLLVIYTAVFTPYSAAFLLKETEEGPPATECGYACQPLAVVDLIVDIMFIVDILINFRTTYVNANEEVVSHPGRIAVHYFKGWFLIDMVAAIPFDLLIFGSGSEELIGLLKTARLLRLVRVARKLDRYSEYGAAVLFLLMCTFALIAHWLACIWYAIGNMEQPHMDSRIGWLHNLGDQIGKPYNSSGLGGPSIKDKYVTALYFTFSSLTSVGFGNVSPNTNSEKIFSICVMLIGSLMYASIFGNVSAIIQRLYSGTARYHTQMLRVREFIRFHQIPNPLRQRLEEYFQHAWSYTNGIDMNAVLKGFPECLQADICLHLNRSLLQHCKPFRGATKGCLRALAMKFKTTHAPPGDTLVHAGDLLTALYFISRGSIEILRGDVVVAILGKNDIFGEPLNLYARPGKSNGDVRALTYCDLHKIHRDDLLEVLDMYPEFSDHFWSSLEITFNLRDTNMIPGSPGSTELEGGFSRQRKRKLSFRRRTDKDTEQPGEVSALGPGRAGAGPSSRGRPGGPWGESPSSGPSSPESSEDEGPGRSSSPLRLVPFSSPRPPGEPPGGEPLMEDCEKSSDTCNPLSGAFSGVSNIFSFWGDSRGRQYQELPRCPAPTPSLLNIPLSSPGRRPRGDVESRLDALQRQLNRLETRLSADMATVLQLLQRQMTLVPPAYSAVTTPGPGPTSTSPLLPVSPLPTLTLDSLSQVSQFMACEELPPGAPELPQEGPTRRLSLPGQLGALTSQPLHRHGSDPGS
Experimental: Blockade of the delayed rectifier potassium current (IKr) encoded by hERG gene (human ether a go go-related gene) can lead to QT interval prolongation and is therefore investigated as part of the cardiac risk assessment. This channel is critical for the repolarisation of the cardiac membrane. The effect of the compounds on IKr was assessed by whole cell patch clamp in stably transfected CHO-K1 cells expressing hERG (Human Ether-a-go-go Related Gene) channel following superfusion at different concentrations up to 30 μM.

[3] = Intrinsic clearance in minipig hepatocytes; assay type: in vitro ADME, male Göttingen minipig; conditions: 2.5 μM
Experimental: The intrinsic clearance was assessed in cryopreserved Hepatocytes obtained by Human livers donors of mix gender pooled together, male balb-c mouse, male Wistar Han rats and male Göttingen minipig, by looking at the parent compound disappearance. The incubations were performed using a final concentration of viable cells of 1 million/ml (viability above 70%) and test item of 2.5 μM. Incubations were followed up to 2 h. Aliquotes were withdrawn at different time points and reaction quenched with acetonitrile. After centrifugation the supernatant was analyzed by HPLC/MS to quantify the remaining amount of parent in comparison with time 0. The clearance was calculated by fitting the log of the percentage remaining with Graphpad Prism ver.7.

[4] = Protein binding analysis (RED), minipig plasma; assay type: in vitro ADME; conditions: male, Gottingen, pH 7.4, RED 4 h, read-out: minipig FU
Experimental: as §1

SF logD = assay type: physicochemical
3T3 murine fibroblasts = assay: Phototoxicity, neutral red uptake; assay type: cell-based; conditions: 3T3 fibroblasts, 7 J/cm2 UVA/UVB
Experimental: Phototoxicity was evaluated in 3T3 murine fibroblasts. Cells were incubated with different concentrations of test compounds. One plate was then exposed to a dose of 7 J/cm2 (UVA/UVB mimicking usual solar exposure) whereas the other plate was kept in the dark. The treatment medium was then replaced with culture medium and after 24 h cell viability was determined by Neutral red uptake. Concentration leading to 50% decrease of viability was calculated in the absence and in the presence of irradiation. The PIF (photo irritation factor) ratio was then calculated: […]).

[5] = In vivo pharmacokinetic analysis in minipig, iv; design: species or system male Göttingen minipigs; conditions: iv 1 mg/kg; for clearance: male, Göttingen, minipig, whole blood, blood, read-out: iv PK minipig: Cl
Experimental: (§2) Three male Göttingen minipigs. Compound was administered intravenously to fed animals at a target dose of 1 mg/kg, dose volume 1 mL/kg, in DMSO: hydroxypropyl-β-cyclodextrin 20% in phosphate buffer 60 mM pH 7 (5:95). Blood samples were collected at various time points. Blood samples were then assayed using a method based upon protein precipitation with acetonitrile followed by LC/MS/MS analysis. Non-compartmental methods were used for pharmacokinetic analysis of blood concentration versus time data.

[6] = system: Salmonella typhimurium TA98 and TA100; assay: Mini Ames assay (TA98 and TA100); assay type: cell-based; conditions: for AMES: TA98 and TA100, with and without S9; for increase in the mean number of revertants: TA98 and TA 100 with or without metabolic activation
Source text: The Ames test in micro-method (in 6-well plates=mini Ames) follows the general principles of the standard Ames's technique. The Ames test used strains of bacteria Salmonella typhimurium that carry mutations in the genes involved in histidine synthesis. These strains are auxotrophic mutants, they require histidine for growth but cannot produce it. The assay was used to observe the ability of the test item to induce reverse mutations allowing the bacteria to grow in a histidine-free medium. The number of bacteria that revert and acquire the wild-type ability to grow in the absence of histidine can be estimated by counting the colonies that develop upon incubation. The use of different strains allows the identification of different mechanisms of gene mutation (TA98 for detection of frameshift mutations and TA100 for detection of base pair substitutions).
In a number of cases, the test item itself is not directly mutagenic but its metabolic derivatives are.
A toxicity assessment was performed on complete nutriment agar plate (with histidine) to define the highest concentration to be used in the genotoxicity assay. Solutions were prepared in 100% DMSO. The first concentration analyzed in the well (6-well plate) was 500 μg per plate followed by 7 serial dilutions (2 times factor of dilution). Each concentration was tested in triplicate on each strain and for each condition of treatment. The viability of the positive and negative controls was analyzed for each strain, in the presence or absence of metabolic activation system, and were compared with historical data to validate the study. If no bacterial toxicity occurred, the highest concentration tested for genotoxicity was […]. If toxicity occurred, a viability above than 70% defined the highest concentration tested.
The genotoxicity assessment was performed on minimal agar plate (without histidine) following the same dilution procedure as for the cytotoxicity assessment. DMSO and phosphate buffer controls were used as negative controls. 2-Nitrofluorene (2NF), 2-Aminoanthracene (2AA) and 4-Nitro-1.2 phenylenediamine (DANB) were selected as positive controls.
Test items, positive and negative controls were incubated with the 2 bacterial strains. After 48 h incubation at 37° C. with and without metabolic activation (S9), the prototrophic mutant colonies that had grown on the plates were counted. The results were expressed as the mean number of revertants for each condition tested (3 replicates each) and for each concentration of the test item and controls. Induction ration, corresponding to the ratio of revertants in presence of test item versus spontaneous revertant, was determined for each concentration.

[7] = system: IL-6 induced p-STAT3Y705 in skin; assay: In vivo pharmacodynamy model: IL-6 induced Phospho-STAT3, topical; design: species or system BALB/c ByJ Rj mice; conditions: topical 1 mM, vehicle PG/EtOH 3/7
[8] = Kinetic aqueous solubility; assay type: physicochemical
[9] = In vivo pharmacokinetic analysis in rat, iv; design: species or system male Wistar Han rat; conditions: iv 1 mg/kg; for clearance / Vd / half-life: male, Wistar Han, rat, whole blood; for clearance: blood, read-out: iv PK rat: Cl; for Vd: read-out: iv PK rat: Vd; for half-life: read-out: iv PK rat: t½ (converted)
Experimental: as §2, with “One” for “Three”, “Wistar Han rat.” for “Göttingen minipigs.”, “animal” for “animals”, “volume: 2” for “volume 1”, “DMSO/hydroxypropyl-beta-cyclodextrin” for “DMSO: hydroxypropyl-β-cyclodextrin”, “data” for “data.”

SMILES	hFU [1]	pIC50 [2]	Intr. Clear. minipig heps [3]	fraction unbound at 4 h, 5 μM [4]	logD (SF logD)	Phototox (3T3 murine fibroblasts)	iv PK minipig: Cl (value in brackets, %) [5]	clearance [5]	AMES [6]	increase in the mean number of revertants [6]	PD/IL6 mouse top @1 mM % inh vs vehicle [7]	Kinetic aq sol [8]	iv PK rat: Cl (value in brackets, %) [9]	clearance [9]	Vd [9]	half-life [9]
CC1(C)CCN(C(=O)C[C@H]2C[C@@H](Nc3c(C#N)cnc4[nH]ccc34)C2)CC1 [Compound A, 4-(((cis)-3-(2-(4,4-dimethylpiperidin-1-yl)-2-oxoethyl)cyclobutyl)amino)-1H-pyrrolo[2,3-b]pyridine-5-carbonitrile]	4.4%	< 4.52	> 300 microL/min/10 6 cells	0.1	3.7	Neg/Neg	111%	31 mL/min/kg	Neg/Neg	did not induce a biologically significant increase	66%	15 µM	46%	36 mL/min/kg	1.4 L/kg	32.4 min
CC1CCN(C(=O)C[C@H]2C[C@@H](Nc3c(C#N)cnc4[nH]ccc34)C2)CC1 [Compound B, 4-(((cis)-3-(2-(4-Methylpiperidin-1-yl)-2-oxoethyl)cyclobutyl)amino)-1H-pyrrolo[2,3-b]pyridine-5-carbonitrile]	5.6%	< 4.52	248 microL/min/10 6 cells	0.083	3.1	Neg/Neg	97%	27 mL/min/kg	Neg/Neg	did not induce a biologically significant increase	81%/ND Tofa @ 10 mM	35 µM	46%	36 mL/min/kg	0.8 L/kg	15.6 min
